Values joined by “and” are separate entries in the source; they are usually repeats but may differ in a detail not shown here. Identical values can stand only once.
Tested on: 485368-065-R4-J2-PDC spheroids with HUVEC/MSC, viability
Assay: Anticancer human tumor 485368-065-R4-J2-PDC patient-derived pancreatic carcinoma cell line growth inhibition [CLK]
Settings: for viability, T/C: stronger effect = lower value
Outline: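 Patient-derived tumor cells grown as complex spheroids with HUVEC endothelial cells and mesenchymal stem cells, treated with drug combinations. Concentrations descend in half-log steps from near clinical Cmax, or from 10 microM if Cmax unknown.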

[1] = curve of first compound, second compound 0.0316 µM
[2] = curve of first compound, second compound 0.1 µM
[3] = curve of first compound, second compound 0.316 µM
[4] = curve of first compound, second compound 1 µM
[5] = curve of first compound, second compound 3.16 µM
[6] = curve of first compound, second compound 10 µM
[7] = second compound 0.0316 µM, first compound 0.0316 µM
[8] = second compound 0.0316 µM, first compound 0.1 µM
[9] = second compound 0.0316 µM, first compound 0.316 µM
[10] = second compound 0.0316 µM, first compound 1 µM
[11] = second compound 0.1 µM, first compound 0.0316 µM
[12] = second compound 0.1 µM, first compound 0.1 µM
[13] = second compound 0.1 µM, first compound 0.316 µM
[14] = second compound 0.1 µM, first compound 1 µM
[15] = second compound 0.316 µM, first compound 0.0316 µM
[16] = second compound 0.316 µM, first compound 0.1 µM
[17] = second compound 0.316 µM, first compound 0.316 µM
[18] = second compound 0.316 µM, first compound 1 µM
[19] = second compound 1 µM, first compound 0.0316 µM
[20] = second compound 1 µM, first compound 0.1 µM
[21] = second compound 1 µM, first compound 0.316 µM
[22] = second compound 1 µM, first compound 1 µM
[23] = second compound 3.16 µM, first compound 0.0316 µM
[24] = second compound 3.16 µM, first compound 0.1 µM
[25] = second compound 3.16 µM, first compound 0.316 µM
[26] = second compound 3.16 µM, first compound 1 µM
[27] = second compound 10 µM, first compound 0.0316 µM
[28] = second compound 10 µM, first compound 0.1 µM
[29] = second compound 10 µM, first compound 0.316 µM
[30] = second compound 10 µM, first compound 1 µM
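Further: spheroids exposed to compounds for seven days.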
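Wherever viability, T/C is given: 100% = DMSO vehicle control wells.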

In the case of `CC1(C)CCC(CN2CCN(c3ccc(C(=O)NS(=O)(=O)c4ccc(NCC5CCOCC5)c([N+](=O)[O-])c4)c(Oc4cnc5[nH]ccc5c4)c3)CC2)=C(c2ccc(Cl)cc2)C1` + CNC(=O)c1ccc(Nc2nc(OC3CCCC3)c3c(-c4ccc5nc(C)oc5c4)c[nH]c3n2)c(OC)c1, the IC50 [1] is reported as 7.11 µM, the IC50 [2] is reported as 7.32 µM and the IC50 [3] is reported as 6.86 µM. It also gave an IC50 [4] of 6.75 µM, an IC50 [5] of 6.51 µM and an IC50 [6] of 6.43 µM. The viability, T/C [7] was 101%, the viability, T/C [8] was 95.1% and the viability, T/C [9] was 85.5%. It also gave a viability, T/C [10] of 102%, a viability, T/C (second compound 0.0316 µM, first compound 3.16 µM) of 117% and a viability, T/C (second compound 0.0316 µM, first compound 10 µM) of 28.9%. For the same molecule, the viability, T/C [11] was 98.2%, the viability, T/C [12] was 97.6% and the viability, T/C [13] was 98.3%. It also gave a viability, T/C [14] of 105%, a viability, T/C (second compound 0.1 µM, first compound 3.16 µM) of 107% and a viability, T/C (second compound 0.1 µM, first compound 10 µM) of 30.8%. For the same molecule, the viability, T/C [15] was 86.7%, the viability, T/C [16] was 89.8% and the viability, T/C [17] was 93.4%. The viability, T/C [18] was 89.5%, the viability, T/C (second compound 0.316 µM, first compound 3.16 µM) was 97.1% and the viability, T/C (second compound 0.316 µM, first compound 10 µM) was 29.9%. The viability, T/C [19] was 74.6%, the viability, T/C [20] was 76% and the viability, T/C [21] was 80.7%. It also gave a viability, T/C [22] of 87.2%, a viability, T/C (second compound 1 µM, first compound 3.16 µM) of 98.7% and a viability, T/C (second compound 1 µM, first compound 10 µM) of 32.6%. The viability, T/C [23] was 74%, the viability, T/C [24] was 73.9% and the viability, T/C [25] was 74%. The viability, T/C [26] was 73.5%, the viability, T/C (second compound 3.16 µM, first compound 3.16 µM) was 93.5% and the viability, T/C (second compound 3.16 µM, first compound 10 µM) was 33.5%. The viability, T/C [27] was 72.6%, the viability, T/C [28] was 72% and the viability, T/C [29] was 62.2%. For the same molecule, the viability, T/C [30] was 72.6%, the viability, T/C (second compound 10 µM, first compound 3.16 µM) was 90.8% and the viability, T/C (second compound 10 µM, first compound 10 µM) was 35.2%.
With `CCCS(=O)(=O)Nc1ccc(F)c(C(=O)c2c[nH]c3ncc(-c4ccc(Cl)cc4)cc23)c1F` the viability, T/C (compound 0.0316 µM) was 103% and 95.3%, the viability, T/C (compound 0.1 µM) was 109% and 96.8% and the viability, T/C (compound 0.316 µM) was 95.8% and 90.5%. The viability, T/C (compound 1 µM) was 93.7% and 90.6%, the viability, T/C (compound 3.16 µM) was 91.3% and 80.7% and the viability, T/C (compound 10 µM) was 123% and 108%. It also gave an IC50 (curve of compound) of over 10 µM.
`COc1c(OCCCN2CCOCC2)ccc2c3n(c(=NC(=O)c4cnc(N)nc4)nc12)CCN3` + CNC(=O)c1ccc(Nc2nc(OC3CCCC3)c3c(-c4ccc5nc(C)oc5c4)c[nH]c3n2)c(OC)c1 showed an IC50 [1] of 0.22 µM, an IC50 [2] of 0.243 µM and an IC50 [3] of 0.136 µM. For the same molecule, the IC50 [4] was 0.0549 µM, the IC50 [5] was 0.0426 µM and the IC50 [6] was 0.0353 µM. It also gave a viability, T/C (second compound 0.0316 µM, first compound 0.00316 µM) of 81.5%, a viability, T/C (second compound 0.0316 µM, first compound 0.01 µM) of 124% and a viability, T/C [7] of 111%. For the same molecule, the viability, T/C [8] was 66.1%, the viability, T/C [9] was 44.5% and the viability, T/C [10] was 40.5%. For the same molecule, the viability, T/C (second compound 0.1 µM, first compound 0.00316 µM) was 103%, the viability, T/C (second compound 0.1 µM, first compound 0.01 µM) was 121% and the viability, T/C [11] was 110%. The viability, T/C [12] was 68.4%, the viability, T/C [13] was 48% and the viability, T/C [14] was 39.9%. It also gave a viability, T/C (second compound 0.316 µM, first compound 0.00316 µM) of 72.4%, a viability, T/C (second compound 0.316 µM, first compound 0.01 µM) of 80.8% and a viability, T/C [15] of 72.6%. For the same molecule, the viability, T/C [16] was 54.9%, the viability, T/C [17] was 36.2% and the viability, T/C [18] was 37.3%. The viability, T/C (second compound 1 µM, first compound 0.00316 µM) was 76.7%, the viability, T/C (second compound 1 µM, first compound 0.01 µM) was 65.4% and the viability, T/C [19] was 59.6%. It also gave a viability, T/C [20] of 42.1%, a viability, T/C [21] of 31.1% and a viability, T/C [22] of 30.5%. For the same molecule, the viability, T/C (second compound 3.16 µM, first compound 0.00316 µM) was 71.2%, the viability, T/C (second compound 3.16 µM, first compound 0.01 µM) was 61.2% and the viability, T/C [23] was 56.2%. It also gave a viability, T/C [24] of 38.5%, a viability, T/C [25] of 28.4% and a viability, T/C [26] of 28.5%. For the same molecule, the viability, T/C (second compound 10 µM, first compound 0.00316 µM) was 66.4%, the viability, T/C (second compound 10 µM, first compound 0.01 µM) was 65.3% and the viability, T/C [27] was 49.7%. The viability, T/C [28] was 38.8%, the viability, T/C [29] was 27.1% and the viability, T/C [30] was 30.1%.

Reference: PubChem BioAssay AID2060617 (Molecular Pharmacology Branch, DTP, NCI, 2025)
